Numbers after ± are expanded uncertainties.
Experiment: excess molar enthalpy (molar enthalpy of mixing); xn = mol fraction of the nth substance listed
Details: 973 K, Liquid, Calvet calorimetry

[Pb] [lead] + [Ag]
Details | excess molar enthalpy [kcal/mol]
101.3 kPa, x2 = 0.2 | 0.555 ± 0.0287

[Pb] [lead] + [Au]
101 kPa
Details | excess molar enthalpy [kcal/mol]
x2 = 0.0446 | -0.0574 ± 0.00287
x2 = 0.0465 | -0.0433 ± 0.00215
x2 = 0.0726 | -0.0915 ± 0.00454
x2 = 0.0864 | -0.111 ± 0.00574
x2 = 0.0922 | -0.0825 ± 0.0043
x2 = 0.1272 | -0.151 ± 0.00765
x2 = 0.1358 | -0.127 ± 0.00645
x2 = 0.1368 | -0.154 ± 0.00789
x2 = 0.1653 | -0.174 ± 0.00884
x2 = 0.1768 | -0.159 ± 0.00813
x2 = 0.1938 | -0.189 ± 0.00956
x2 = 0.2 | -0.212 ± 0.0108
x2 = 0.2003 | -0.202 ± 0.0103
x2 = 0.2148 | -0.187 ± 0.00956
x2 = 0.2333 | -0.209 ± 0.0105
x2 = 0.2482 | -0.212 ± 0.0108
x2 = 0.2506 | -0.204 ± 0.0103
x2 = 0.2652 | -0.228 ± 0.0115
x2 = 0.2841 | -0.22 ± 0.0112
x2 = 0.2962 | -0.24 ± 0.0122
x2 = 0.2966 | -0.228 ± 0.0115
x2 = 0.3161 | -0.222 ± 0.0112
x2 = 0.3226 | -0.244 ± 0.0124
x2 = 0.3436 | -0.235 ± 0.012
x2 = 0.3455 | -0.232 ± 0.0117
x2 = 0.3733 | -0.235 ± 0.012
x2 = 0.3862 | -0.239 ± 0.0122
x2 = 0.4 | -0.257 ± 0.0129
x2 = 0.402 | -0.241 ± 0.0122
x2 = 0.4248 | -0.241 ± 0.0122
x2 = 0.4294 | -0.248 ± 0.0127
x2 = 0.4416 | -0.249 ± 0.0127
